{
  "source": "patent US10624845B2",
  "about": "(The Procter & Gamble Company, priority 2015, dated 2020)",
  "key": {"[1]": {"system": "buccal tissue (EpiOral® tissues)", "settings": "for Average Apparent Permeability Coefficient Papp: donor pH 9.0, receiver pH 7.4, co-dosed 100 μM (caffeine 50 μM), n=6"}, "[2]": {"system": "buccal tissue (EpiOral® tissues)", "experiment": "Permeability Enhancer Assay (Permeability Enhancer Test)", "settings": "pH 5.0; reference […]10^−6 cm/s", "text": "The donor side was not sampled and donor concentration was not measured."}, "in vitro": {"experiment": "in vitro", "settings": "human"}},
  "data": [
    {"smiles": "Cn1c(=O)c2c(ncn2C)n(C)c1=O", "note": "[Caffeine]", "values": [
      {"measurement": "Average Apparent Permeability Coefficient Papp", "setting": "[1]", "value": "33.3 ± 3.55 10^−6 cm/s"},
      {"measurement": "change of Papp at pH 9.0 compared to that at pH 5.0 and 7.4", "setting": "[1]; pH 9.0 vs pH 5.0 and 7.4", "value": "only moderately increased"}
    ]},
    {"smiles": "CCCCCCCCCCCCCCCC[n+]1ccccc1", "note": "[Cetylpyridinium chloride]", "values": [
      {"measurement": "effect of the enhancer on the Papp of diphenhydramine versus reference Papp from the Permeability Test", "setting": "[2]", "value": "higher"}
    ]},
    {"smiles": "CC(C)NCC(O)COc1cccc2ccccc12", "note": "(stereo not drawn) [Propranolol]", "values": [
      {"measurement": "Average Apparent Permeability Coefficient Papp", "setting": "[1]", "value": "21.5 ± 4.66 10^−6 cm/s"},
      {"measurement": "Papp at 120 min, 100 μM", "setting": "in vitro; pH 5", "value": 1.45, "unit": "×10⁻⁶ cm/s"},
      {"measurement": "Papp at 120 min, 100 μM", "setting": "in vitro; pH 7.4", "value": 9.35, "unit": "×10⁻⁶ cm/s"},
      {"measurement": "Papp at 120 min, 100 μM", "setting": "in vitro; pH 9", "value": 21.5, "unit": "×10⁻⁶ cm/s"}
    ]},
    {"smiles": "CCCCCCCCCCCCOS(=O)(=O)[O-].[Na+]", "note": "[SDS, sodium dodecyl sulfate]", "values": [
      {"measurement": "effect of the enhancer on the Papp of diphenhydramine versus reference Papp from the Permeability Test", "setting": "[2]", "value": "lower"}
    ]},
    {"smiles": "CCCCCCCCCC(=O)[O-].[Na+]", "note": "[Sodium Caprate]", "values": [
      {"measurement": "effect of the enhancer on the Papp of diphenhydramine versus reference Papp from the Permeability Test", "setting": "[2]", "value": "higher"}
    ]}
  ]
}
